Measurements from patent US6593480B2 (Abbott Laboratories, priority 1999, dated 2003).

Tests used:
[1] = biological target: T1, progesterone receptor (PR) (Homo sapiens, UniProt P06401); test: Radioligand binding assay with progesterone receptor cytosol (similar protocol)
T1 sequence (P06401 1-933): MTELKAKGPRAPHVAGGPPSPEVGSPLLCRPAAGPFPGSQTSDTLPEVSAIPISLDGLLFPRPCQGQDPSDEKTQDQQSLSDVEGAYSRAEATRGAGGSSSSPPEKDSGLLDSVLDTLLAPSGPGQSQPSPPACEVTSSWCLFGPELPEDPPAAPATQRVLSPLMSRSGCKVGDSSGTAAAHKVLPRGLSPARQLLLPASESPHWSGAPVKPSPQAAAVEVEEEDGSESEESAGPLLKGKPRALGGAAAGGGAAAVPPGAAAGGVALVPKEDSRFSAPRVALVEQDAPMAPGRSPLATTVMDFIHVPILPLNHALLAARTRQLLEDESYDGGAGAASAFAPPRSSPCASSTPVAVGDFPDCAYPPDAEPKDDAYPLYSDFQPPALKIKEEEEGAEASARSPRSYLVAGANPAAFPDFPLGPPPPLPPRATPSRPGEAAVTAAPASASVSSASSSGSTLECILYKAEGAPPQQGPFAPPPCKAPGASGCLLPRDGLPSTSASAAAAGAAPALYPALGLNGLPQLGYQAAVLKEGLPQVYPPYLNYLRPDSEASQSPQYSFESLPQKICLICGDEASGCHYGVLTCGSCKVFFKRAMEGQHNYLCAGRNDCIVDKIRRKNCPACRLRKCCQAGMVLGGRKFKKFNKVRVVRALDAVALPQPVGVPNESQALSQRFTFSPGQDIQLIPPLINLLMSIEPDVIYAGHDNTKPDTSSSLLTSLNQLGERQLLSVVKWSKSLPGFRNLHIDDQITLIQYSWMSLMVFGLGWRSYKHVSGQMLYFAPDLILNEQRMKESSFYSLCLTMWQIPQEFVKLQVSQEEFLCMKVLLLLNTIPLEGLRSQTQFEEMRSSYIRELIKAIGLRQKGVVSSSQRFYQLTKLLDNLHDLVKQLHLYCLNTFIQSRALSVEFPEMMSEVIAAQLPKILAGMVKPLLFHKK
Source text: Methods for Radioligand Binding Studies with Human Glucocorticoid and Progesterone Receptor Cytosol
A similar protocol was employed to measure affinity of the compounds of the present invention for progesterone receptor (PR).

[2] = biological target: T2, Human glucocorticoid receptors (Homo sapiens, UniProt P04150); test: Radioligand filter binding assay, displacement of 3(H)-dexamethasone from human glucocorticoid receptor cytosol; details: 1.7 μM test compound, inhibition of 3(H)-dex binding to hGR
T2 construct: made in house; host or cells: Sf9 insect cells, recombinant baculovirus (BAC-TO-BAC)
T2 sequence (P04150 1-777): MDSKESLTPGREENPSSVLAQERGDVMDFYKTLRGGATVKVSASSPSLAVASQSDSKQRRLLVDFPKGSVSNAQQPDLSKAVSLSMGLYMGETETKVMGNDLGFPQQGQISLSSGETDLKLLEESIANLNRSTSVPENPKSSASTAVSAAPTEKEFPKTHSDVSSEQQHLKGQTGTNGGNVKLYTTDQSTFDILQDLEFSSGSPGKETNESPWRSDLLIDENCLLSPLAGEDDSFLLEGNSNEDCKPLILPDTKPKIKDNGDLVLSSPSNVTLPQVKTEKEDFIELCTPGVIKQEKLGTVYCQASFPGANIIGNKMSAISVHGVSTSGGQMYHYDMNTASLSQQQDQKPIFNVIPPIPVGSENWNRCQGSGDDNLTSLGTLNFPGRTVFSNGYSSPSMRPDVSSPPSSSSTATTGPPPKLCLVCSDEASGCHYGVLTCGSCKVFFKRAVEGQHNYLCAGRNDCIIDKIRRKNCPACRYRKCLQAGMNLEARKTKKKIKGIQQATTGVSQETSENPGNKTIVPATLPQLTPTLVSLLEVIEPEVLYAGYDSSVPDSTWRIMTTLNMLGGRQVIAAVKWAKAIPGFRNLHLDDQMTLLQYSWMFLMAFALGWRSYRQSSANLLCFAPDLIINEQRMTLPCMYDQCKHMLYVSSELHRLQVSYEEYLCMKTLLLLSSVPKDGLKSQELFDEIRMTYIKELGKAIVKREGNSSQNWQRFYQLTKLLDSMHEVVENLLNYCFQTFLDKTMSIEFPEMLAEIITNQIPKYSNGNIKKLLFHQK

[3] = system: obese diabetic db/db transgenic mice; details: cited from earlier work

| Compound | melting point [°C] | IC50 [1] [nM] | inhibition at 1.7 µM ([2]; read-out: GR BINDING (% Inhibition @ 1.7 μM)) [%] | GR BINDING (% Inhibition @ 1.7 μM) [2] [%] | mRNA levels of PEPCK and glucose-6-phosphate in the liver ([3]; liver, db/db mice) | reduction of plasma glucose levels ([3]; obese diabetic db/db transgenic mice) [%] |
| --- | --- | --- | --- | --- | --- | --- |
| COc1cccc2c1-c1ccc(NS(C)(=O)=O)c(C)c1C(c1cccc(C(F)(F)F)c1)O2 (stereo not shown) [Example 1, (1-methoxy-6-(3-trifluoromethyl)phenyl-7-methyl-6H-dibenzo(b,d)pyran-8-yl)methanesulfonamide] | 217 to 218 | 5630 | 82.1 |  |  |  |
| CC#C[C@]1(O)CC[C@H]2[C@@H]3CCC4=CC(=O)CCC4=C3[C@@H](c3ccc(N(C)C)cc3)C[C@@]21C [mifepristone] |  |  |  |  | reduces | 50 |
| (1-methoxy-6-allyl-6H-dibenzo(b,d)pyran-8-yl)methanesulfonamide [Example 53] |  | 1420 |  | 92.9 |  |  |
| (1-methoxy-6-cyclohexyl-6H-dibenzo(b,d)pyran-8-yl)methanesulfonamide [Example 55] |  | 1000 |  | 93.4 |  |  |

Second part, led by results:

| melting point [°C] | IC50 [1] [nM] | inhibition at 1.7 µM ([2]; read-out: GR BINDING (% Inhibition @ 1.7 μM)) [%] | GR BINDING (% Inhibition @ 1.7 μM) [2] [%] | Compound | mRNA levels of PEPCK and glucose-6-phosphate in the liver ([3]; liver, db/db mice) | reduction of plasma glucose levels ([3]; obese diabetic db/db transgenic mice) [%] |
| --- | --- | --- | --- | --- | --- | --- |
|  | 670 |  | 89.7 | (1-methoxy-6-(4-methylphenyl)-6H-dibenzo(b,d)pyran-8-yl)methanesulfonamide [Example 76] |  |  |
|  | 172 |  | 94.5 | (1-methoxy-6-(5-bromothien-2-yl)-6H-dibenzo(b,d)pyran-8-yl)methanesulfonamide [Example 62] |  |  |
|  | 1850 |  | 90.1 | (1-methoxy-6-(5-chloropent-1-yl)-6H-dibenzo(b,d)pyran-8-yl)methanesulfonamide [Example 75] |  |  |
|  | 524 |  | 94.6 | (1-methoxy-6-(5-chlorothien-2-yl)-6H-dibenzo(b,d)pyran-8-yl)methanesulfonamide [Example 58] |  |  |
|  | 970 |  | 86.7 | (1-methoxy-6-(inden-3-yl)-6H-dibenzo(b,d)pyran-8-yl)methanesulfonamide [Example 74] |  |  |
